Measured values: US10266489B2, “Pyrrolic amide compound and preparation method and application thereof” (HitGen LTD, priority 2014, dated 2019)

How the values were obtained:
[1] = system: Huh7 cells; experiment: Determination of cell growth inhibition, CCK-8, Huh-7; type: cell-based; settings: Homo sapiens, Huh-7 hepatoma cells, 72 hours, highest measured IC50 of single or multiple operations
From the text: (§1) Test example 2 Cell determination-determination of cell growth inhibition Materials and reagents HepG2 cell strains, Hep3B cell strains, Huh7 cell strains and Li7 cell strains are purchased from Shanghai Institutes for Biological Sciences of Chinese Academy of Sciences; DMEM high glucose media and MEM media are purchased from Hyclone; fetal calf serum is purchased from Gibco Company; trypsin is purchased from Invitrogen Shanghai; CCK-8 kits are purchased from Beyotime Institute of Biotechnology; and other consumables such as cell-culture dishes and the like are purchased from Corning China. […]
(§2) comprising the steps: digesting HepG2 cells, Hep3B Huh7 cells and Li7 cells in logarithmic phases by using the trypsin; after counting the cells by taking uniform cell suspension, adjusting cell density to 1500 cells/pore by using a culture medium containing 10% of serum, and re-inoculating into a 96-pore cell culture plate, wherein the culture volume is 200 μL; incubating in a 5% CO2 incubator at a temperature of 37° C.; and culturing for 24 hours for experiments. […]
(§3) comprising the steps: taking the cells cultured for 24 hours from the incubator, sucking culture solution in the pore plate, adding 200 μL of compound solution prepared by using a culture medium containing 10% of the fetal calf serum into each pore, enabling five pores of each concentration to be parallel, setting DMSO at negative control, and incubating in the 5% CO2 incubator at a temperature of 37° C. for 72 hours for performing CCK-8 detection. […]
(§4) comprising the steps: taking a serum-free medium and a CCK-8 solution, and preparing a CCK-8 working solution according to a ratio of 10:1 (the process needs to be protected from light); taking the cells cultured for 72 hours from the incubator, sucking culture solution in the pore plate, adding 120 μL of the CCK-8 working solution into each pore, adding 120 μL of the CCK-8 working solution into a cell-free pore plate to serve as blank control, and incubating in the 5% CO2 incubator at a temperature of 37° C. for one hour (the process needs to be protected from light ); and […]
(§5) taking the pore plate from the incubator, sucking 100 μL of solution from each pore into a new 96-pore plate, and reading absorbancy at 450 nm (the process needs to he protected from light).
(§6) Tx: absorbancy measured in CCK-8 within 72 hours after compound effect
(§7) C: absorbancy measured m CCK-8 within 72 hours after culturing in negative control pores B: absorbancy measured CCK-8 in blank control pores
(§8) The compounds 1-19 prepared in the embodiments are operated in the above determination, and test results are shown in Table 3, wherein the highest measured IC50 values of the various compounds during single or multiple operations are classified as specified, as shown in Table 3: […]

[2] = molecular target: T1, histone deacetylase 6 (HDAC6) (Homo sapiens, UniProt Q9UBN7); experiment: Detection of enzyme viability of histone deacetylase 6 (fluorogenic substrate deacetylation); type: biochemical; settings: 0.35 ng/μL HDAC 6, 20 μM substrate, 37° C.
T1 construct: purchased BPS Bioscience 50076
T1 sequence (Q9UBN7 1-1215): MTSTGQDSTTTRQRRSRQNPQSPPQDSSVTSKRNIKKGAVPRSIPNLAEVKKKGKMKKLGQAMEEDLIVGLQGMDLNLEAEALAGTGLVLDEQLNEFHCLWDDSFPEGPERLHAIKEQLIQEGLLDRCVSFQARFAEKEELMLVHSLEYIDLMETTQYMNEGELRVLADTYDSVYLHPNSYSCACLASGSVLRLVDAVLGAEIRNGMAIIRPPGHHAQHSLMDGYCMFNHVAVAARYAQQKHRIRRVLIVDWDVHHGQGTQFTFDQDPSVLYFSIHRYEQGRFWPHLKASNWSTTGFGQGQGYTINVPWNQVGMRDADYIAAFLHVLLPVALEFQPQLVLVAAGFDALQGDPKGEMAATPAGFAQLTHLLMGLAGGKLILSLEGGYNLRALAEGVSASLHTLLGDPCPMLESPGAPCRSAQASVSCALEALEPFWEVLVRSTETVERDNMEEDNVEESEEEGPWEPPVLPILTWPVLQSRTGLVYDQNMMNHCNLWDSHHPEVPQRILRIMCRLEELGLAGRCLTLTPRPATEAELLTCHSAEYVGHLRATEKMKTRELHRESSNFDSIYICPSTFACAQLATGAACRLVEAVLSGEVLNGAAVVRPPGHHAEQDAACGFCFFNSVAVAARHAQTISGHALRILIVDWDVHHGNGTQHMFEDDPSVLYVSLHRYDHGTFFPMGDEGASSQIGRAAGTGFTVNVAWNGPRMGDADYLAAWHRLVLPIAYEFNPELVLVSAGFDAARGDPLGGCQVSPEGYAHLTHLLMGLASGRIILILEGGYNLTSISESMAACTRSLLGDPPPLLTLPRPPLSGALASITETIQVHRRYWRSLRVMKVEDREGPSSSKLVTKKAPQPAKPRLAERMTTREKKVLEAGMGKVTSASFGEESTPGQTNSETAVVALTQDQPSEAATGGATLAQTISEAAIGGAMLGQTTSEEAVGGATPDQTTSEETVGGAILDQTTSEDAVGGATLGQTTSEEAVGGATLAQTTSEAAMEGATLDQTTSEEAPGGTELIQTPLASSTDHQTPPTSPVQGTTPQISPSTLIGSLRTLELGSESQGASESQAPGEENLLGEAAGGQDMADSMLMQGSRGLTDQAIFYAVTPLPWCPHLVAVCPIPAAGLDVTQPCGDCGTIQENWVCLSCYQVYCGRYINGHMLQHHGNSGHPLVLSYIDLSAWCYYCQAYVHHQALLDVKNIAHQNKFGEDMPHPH
From the text: (§9) HDAC inhibitory viabilities of the compounds in the present invention are detected in detection of substrate deacetylation.
A: Detection of enzyme viability of histone deacetylase 6 (#50076, BPS Bioscience):
Acetyl of HDAC 6 on a substrate is removed, so that the substrate is activated and can be affected by a subsequently added developing solution, and fluorophore is released. The size of a fluorescence signal reflects the viability of the HDAC 6. An IC50 detection method of the enzyme is disclosed in Chuping Xu, Elisabetta Soragni improved Histone Deacetylase Inhibitors as Therapeutics for the Neurdegenerative DiseaseEriedreich's Ataxia: A New Synthetic Route. A total reaction system (100 μL/well) contains 0.35 ng/μL of HDAC 6, 20 μM of substrate and compounds of different concentrations. The fluorescence signal is measured within 30 minutes after incubation at a temperature of 37° C., inhibitory effects of the compounds are determined from the obtained data and mapped with the compound concentrations to obtain a concentration response curve, and the IC50 value is fitted according to a four-parameter model.
(§10) The compounds 1-19 prepared in the embodiments are subjected to detection of enzyme viability of histone deacetylase 6 (i.e., HDAC6) according to the method above. Test results are shown in Table 2, wherein the measured IC50 values of the compounds are classified as specified, as shown in Table 2: […]

[3] = system: Hep3B cells; experiment: Determination of cell growth inhibition, CCK-8, Hep3B; type: cell-based; settings: Homo sapiens, Hep3B hepatoma cells, 72 hours, highest measured IC50 of single or multiple operations
From the text: as §1, §2, §3, §4, §5, §6, §7, §8

[4] = molecular target: T2, histone deacetylase 3 (HDAC3) (Homo sapiens, UniProt O15379); experiment: Detection of enzyme viability of histone deacetylase 3 (fluorogenic substrate deacetylation); type: biochemical; settings: 0.16 ng/μL HDAC 3, 10 μM substrate
T2 construct: purchased BPS Bioscience 50003
From the text: as §9
B: Detection of enzyme viability of histone deacetylase 3 (#50003, BPS Bioscience):
Acetyl of HDAC 3 on a substrate is removed, so that the substrate is activated and can be affected by the developing solution, and fluorophore is released. The size of a fluorescence signal reflects the viability of the HDAC 3. An IC50 detection method of the enzyme is disclosed in Chuping Xu, Elisabetta Soraeni Improved Histone Deacetylase Inhibitors as Therapeutics for the Neurdegenerative DiseaseFriedreich's Ataxia: A New Synthetic Route. A total reaction system (100 μL/well) contains 0.16 ng/μL of HDAC 3, 10 μM of substrate and compounds of different concentrations. The fluorescence signal is detected at Ex/Em=360/460 on line, inhibitory effects of the compounds are determined from the obtained data and mapped with the compound concentrations to obtain a concentration response curve, and the IC50 value is fitted according to a four-parameter model.
as §10, with “3” for “6”, “HDAC3)” for “HDAC6)”

[5] = system: HepG2 cells; experiment: Determination of cell growth inhibition, CCK-8, HepG2; type: cell-based; settings: Homo sapiens, HepG2 hepatoma cells, 72 hours, highest measured IC50 of single or multiple operations
From the text: as §1, §2, §3, §4, §5, §6, §7, §8

[6] = system: Li7 cells; experiment: Determination of cell growth inhibition, CCK-8, Li-7; type: cell-based; settings: Li-7 hepatoma cells, 72 hours, highest measured IC50 of single or multiple operations
From the text: as §1, §2, §3, §4, §5, §6, §7, §8

T2 sequence (O15379 whole entry): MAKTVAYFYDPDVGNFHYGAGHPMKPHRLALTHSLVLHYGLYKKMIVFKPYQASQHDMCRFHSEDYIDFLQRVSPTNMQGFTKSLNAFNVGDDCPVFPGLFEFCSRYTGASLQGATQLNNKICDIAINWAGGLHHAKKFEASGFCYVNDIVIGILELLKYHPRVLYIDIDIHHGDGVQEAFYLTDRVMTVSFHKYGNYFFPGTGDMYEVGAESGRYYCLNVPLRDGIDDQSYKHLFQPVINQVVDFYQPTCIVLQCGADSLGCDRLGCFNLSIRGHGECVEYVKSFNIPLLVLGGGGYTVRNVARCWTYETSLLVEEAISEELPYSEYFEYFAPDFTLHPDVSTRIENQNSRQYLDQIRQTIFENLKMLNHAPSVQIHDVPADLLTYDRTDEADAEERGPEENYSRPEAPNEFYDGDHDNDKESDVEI
T2 sequence (Q9Y618 395-489 partner limits assumed): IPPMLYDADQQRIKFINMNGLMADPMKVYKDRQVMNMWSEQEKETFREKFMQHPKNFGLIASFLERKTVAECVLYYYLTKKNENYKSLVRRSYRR

IC50 [1] [µM]	IC50 [3] [µM]	IC50 [5] [µM]	Structure (SMILES)	IC50 [2] [µM]	IC50 [4] [µM]	IC50 [6] [µM]
> 10	> 10	> 10	O=C(NO)C1=CCN(S(=O)(=O)c2ccccc2)C1 [Compound 2, N-hydroxy-1-(benzene-sulfonyl)-2,5-dihydro-1H-pyrrole-3-formamide]	< 0.1	> 1	> 10
> 10	> 10	> 10	O=C(NO)C1=CCN(S(=O)(=O)c2ccc(Oc3ccccc3)cc2)C1 [Compound 3]	0.1 to 0.3	0.1 to 1	> 10
> 10	> 10	> 10	CC(=O)Nc1ccc(S(=O)(=O)N2CC=C(C(=O)NO)C2)cc1Cl [Compound 4, N-hydroxy-1-((4-acetamido-3-chlorphenyl)sulfonyl)2,5-dihydro-1H-pyrro1e-3-formamide]	< 0.1	0.1 to 1	> 10
> 10	> 10	> 10	O=C(NO)C1=CCN(S(=O)(=O)c2ccc3c(c2)OCCO3)C1 [Compound 5, N-hydroxy-1-((2,3-dihydro-benzo[b] [1,4]dioxin)-6-sulfonyl)2,5-dihydro-1H-pyrrole-3-formamide]	< 0.1	> 1	> 10
> 10	> 10	> 10	O=C(NO)C1=CCN(S(=O)(=O)c2ccc3c(c2)OCC3)C1 [Compound 6, N-hydroxy-1-((2,3-dihydro-benzofuran)-6-sulfonyl)2,5-dihydro-1H-pyrrole-3-formamide]	< 0.1	0.1 to 1	> 10
> 10	> 10	> 10	CC(C)(C)c1ccc(S(=O)(=O)N2CC=C(C(=O)NO)C2)cc1 [Compound 8]	< 0.1	0.1 to 1	> 10
